Measured values reported in PMC7177849, “Gut Microbial Catabolites of Tryptophan Are Ligands and Agonists of the Aryl Hydrocarbon Receptor: A Detailed Characterization” (International Journal of Molecular Sciences, 2020).
Several values for one entry are separate records, joined by “and”; a condition that tells them apart may be missing. Equal values may be shown once. Read-outs that look alike come from different tables or passages of the source.

Legend:
AhR [1] = test system: AhR; parameters: method as in PMID 23973224; conditions: mouse H1L1.1c2 reporter cells; cited from earlier work
AhR [2] = biological target: T1, AhR (Homo sapiens, UniProt P35869); experiment: Immunofluorescence detection of nuclear translocation of the AhR in LS180 cells; assay type: cell-based; parameters: 0.1% V/V), TCDD (10 nM), and test MICT; host or cells: LS180 cells
T1 sequence (P35869 11-848): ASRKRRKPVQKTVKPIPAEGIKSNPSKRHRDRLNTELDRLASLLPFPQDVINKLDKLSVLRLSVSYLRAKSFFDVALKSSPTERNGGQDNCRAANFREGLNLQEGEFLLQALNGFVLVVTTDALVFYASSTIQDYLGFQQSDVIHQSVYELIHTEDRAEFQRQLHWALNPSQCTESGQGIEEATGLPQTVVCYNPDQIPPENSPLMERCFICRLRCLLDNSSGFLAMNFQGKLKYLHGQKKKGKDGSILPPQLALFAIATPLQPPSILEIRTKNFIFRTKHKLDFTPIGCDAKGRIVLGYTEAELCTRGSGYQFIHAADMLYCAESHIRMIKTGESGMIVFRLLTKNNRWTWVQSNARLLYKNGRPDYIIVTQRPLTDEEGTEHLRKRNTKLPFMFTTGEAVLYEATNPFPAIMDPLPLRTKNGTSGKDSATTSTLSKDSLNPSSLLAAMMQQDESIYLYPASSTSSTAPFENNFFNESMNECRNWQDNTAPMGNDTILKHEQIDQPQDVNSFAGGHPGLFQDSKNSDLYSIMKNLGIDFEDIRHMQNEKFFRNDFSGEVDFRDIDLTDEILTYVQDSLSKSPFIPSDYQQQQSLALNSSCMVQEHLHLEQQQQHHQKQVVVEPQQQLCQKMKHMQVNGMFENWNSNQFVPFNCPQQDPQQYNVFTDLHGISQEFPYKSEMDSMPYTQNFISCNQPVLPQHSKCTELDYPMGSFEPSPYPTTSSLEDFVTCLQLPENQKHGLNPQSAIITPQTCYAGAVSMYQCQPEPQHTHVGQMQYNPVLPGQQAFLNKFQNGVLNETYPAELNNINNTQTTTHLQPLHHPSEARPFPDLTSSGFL
Experimental: Figure 5 Effect of MICT on nuclear translocation of the AhR. LS180 cells were incubated for 90 min with vehicle (DMSO; 0.1% V/V), TCDD (10 nM), and test MICT. The experiments were performed in three consecutive cell passages with all tested compounds in duplication. Fluorescence images depict sub-cellular localization of AhR (upper panels) and nuclear staining by DAPI (lower panels). Representative micrographs are shown.
LS180 cells (60,000 cells/well) were plated on 8-well chambered slides (94.6140.802, Sarstedt, Nümbrecht, Germany) and allowed to grow overnight. Then, the cells were incubated with DMSO (0.1% V/V), TCDD (10 nM), IND (1000 µM), IPY (200 µM), 3MI (200 µM), TA (200 µM), IAC (100 µM), and IAD (200 µM). The staining procedure was described in detail elsewhere. The images were captured using an IX73 fluorescence microscope (Olympus, Tokyo, Japan). The immunofluorescence signal intensity (of the AhR antibody) in the nucleus was evaluated visually. For percentage calculation, approximately 500 cells from at least four randomly selected fields of view in each specimen were used.
Suppl. Table 1. Nuclear translocation of AhR – quantification of immunofluorescence.
LS180 cells were incubated for 90 min with MICT , vehicle or TCDD. Intracellular AhR was visualized with Alexa Fluor 488 labelled primary antibody. The whole staining protocol was performed in three independent experiments in technical duplicates. The AhR translocation was evaluated visually depending on the distinct signal intensity of AhR antibody in the nucleus and cytosol. For percentage calculation, approximately one hundred cells from at least four randomly selected fields of view in each

AhR [3] = test system: AhR; parameters: method as in PMID 26235394; conditions: 100 µM IND, HepG2 cells, 4 h; cited from earlier work
CYP1A1 mRNA = test system: CYP1A1 mRNA; parameters: method as in PMID 24563545; conditions: cited from earlier work
CYP1A1 promoter = experiment: Chromatin immunoprecipitation (ChIP), binding of the AhR to CYP1A1 promoter in LS180 cells; assay type: cell-based, human; conditions: 90 min
Experimental: Figure 7 MICT elicit the binding of the AhR to CYP1A1 promoter, as determined by the chromatin immunoprecipitation assay (ChIP). LS180 cells were incubated with vehicle, TCDD, and tested compounds, as described in Materials and Methods, and were then subjected to ChIP analysis. Bar graphs show binding of the AhR to CYP1A1 promoter as quantified by RT-PCR. The entire protocol was carried out in three consecutive cell passages. The data are expressed as a fold enrichment to vehicle-treated cells and show the mean ± SD from duplicates (technical replicates). DNA fragments amplified by PCR were resolved on 2% agarose gel (representative record from “exp 2” is shown).
LS180 cells (4 million) were seeded in a 60-mm dish in Dulbecco’s modified Eagle’s medium (D6546; Sigma Aldrich). The following day, the cells were incubated with DMSO (0.1% V/V), TCDD (10 nM), IND (1000 µM), IPY (200 µM), 3MI (200 µM), TA (200 µM), IAC (100 µM), and IAD (200 µM) for 90 min at 37 °C. ChIP assay was performed as we described in detail elsewhere.

[4] = LS180, 90 min, exp 1, TCDD 10 nM, Indole 1 mM, IAC 100 µM, others 200 µM
[5] = LS180, 90 min, exp 2, TCDD 10 nM, Indole 1 mM, IAC 100 µM, others 200 µM
[6] = LS180, 90 min, exp 3, TCDD 10 nM, Indole 1 mM, IAC 100 µM, others 200 µM
[7] = mean ± SD, n = 3, relative to TCDD-treated cells, LS180, 90 min
[8] = relative to TCDD-treated cells, LS180, 90 min, exp 1, same concentrations
[9] = relative to TCDD-treated cells, LS180, 90 min, exp 2, same concentrations
[10] = relative to TCDD-treated cells, LS180, 90 min, exp 3, same concentrations

Compound	agonist activity (AhR [1])	% positive AhR nuclei (AhR [2]; [4])	% positive AhR nuclei (AhR [2]; [5])	% positive AhR nuclei (AhR [2]; [6])	Ø AhR positive nuclei (AhR [2]; [7])	% relative AhR nuclei (AhR [2]; [8])	% relative AhR nuclei (AhR [2]; [9])	% relative AhR nuclei (AhR [2]; [10])	activation of AhR (AhR [3])	induction of CYP1A1 mRNA (AhR [3])	% positive AhR nuclei (AhR [2])	% relative AhR nuclei (AhR [2])	Ø AhR positive nuclei (AhR [2])	induction of CYP1A1 mRNA (CYP1A1 mRNA; various human cells, 500–1000 µM IND)	CYP1A1 mRNA induction (CYP1A1 mRNA; 50 µM TA, Caco-2 and cells)	binding of the AhR to the promoter of the CYP1A1 gene (CYP1A1 promoter)
O=Cc1c[nH]c2ccccc12 [IA, indole-3-aldehyde]	vigorous agonist activity	–	–	–	–	–	–	–	–	–	–	–	–	–	–	–
O=C(O)C(=O)Cc1c[nH]c2ccccc12 [IPY, indole-3-pyruvate]	–	42%	60%	38%	73 ± 9.0%	78%	78%	62%	–	–	–	–	–	–	–	–
NC(=O)Cc1c[nH]c2ccccc12 [IAD, indole-3-acetamide]	–	46%	73%	42%	83 ± 13.1%	85%	95%	69%	–	–	–	–	–	–	–	–
c1ccc2[nH]ccc2c1 [IND, indole]	–	–	–	–	–	–	–	–	achieved	achieved	61% and 73% and 65%	113% and 95% and 107%	105 ± 9.2%	moderate induction	–	–
O=C(O)/C=C/c1c[nH]c2ccccc12 [IAC, indole-3-acrylate]	–	51%	61%	73%	98 ± 20.4%	94%	79%	120%	–	–	–	–	–	–	–	–
NCCc1c[nH]c2ccccc12 [TA, tryptamine]	–	44%	65%	66%	91 ± 14.6%	81%	84%	108%	–	–	–	–	–	–	induction	–
Clc1cc2c(cc1Cl)Oc1cc(Cl)c(Cl)cc1O2 [TCDD, 2,3,7,8-tetrachlorodibenzo-p-dioxin, reference compound]	–	54%	77%	61%	–	–	–	–	–	–	–	–	–	–	–	enhanced
Cc1c[nH]c2ccccc12 [3MI, skatole]	–	65%	72%	62%	105 ± 13.8%	120%	94%	102%	–	–	–	–	–	–	–	–
